The text below walks through data of ChEMBL document CHEMBL3046449, “Selective Herbicidal Activities of Ethyl 5-(4, 6-Dimethoxypyrimidin-2-ylcarbamoylsulfamoyl)-1-methylpyrazole-4-carboxylate and Its Related Compounds” (J Pestic Sci, 1990).

A value given as a limit tells only on which side of the number the result lay.

A short description of data set [1]: Phytotoxicity against Oryza sativa (rice) assessed as growth inhibition under greenhouse at 5 g/ha measured after 18 days by preemergence activity assay. The format is organism-based. The settings on record: in vivo, read-out: GI.
In a further data set the test system is Rotala indica. Briefly: Herbicidal activity against Rotala indica assessed as growth inhibition in paddy condition under greenhouse at 5 g/ha measured after 18 days by preemergence activity assay. The data set is classed as functional. The settings on record: pre-emergence, 432 h, read-out: GI.
The next data set has as its system Pontederia vaginalis. Briefly: Herbicidal activity against Monochoria vaginalis assessed as growth inhibition in paddy condition under greenhouse at 5 g/ha measured after 18 days by preemergence activity assay. The format is functional. To be noted: pre-emergence, 432 h, read-out: GI.
Data set [2] has as its system Schoenoplectiella juncoides. Briefly: Herbicidal activity against Schoenoplectiella juncoides assessed as growth inhibition in paddy condition under greenhouse at 5 g/ha measured after 18 days by preemergence activity assay. The settings on record: pre-emergence, 432 h, read-out: GI. The format is functional.
For the next data set, the system named is Echinochloa crus-galli. Kind of data set: Herbicidal activity against Echinochloa crus-galli (barnyard grass) assessed as growth inhibition in paddy condition under greenhouse at 5 g/ha measured after 18 days by preemergence activity assay. The format is functional. To be noted: pre-emergence, 432 h, read-out: GI.

With `CCOC(=O)c1c(OC)nn(C)c1S(=O)(=O)NC(=O)Nc1nc(OC)cc(OC)n1`, in data set [1], the inhibition at 432 h was under 5%. Also, the inhibition of growth at 5 g/ha with Rotala indica was over 90%; in the data set with Pontederia vaginalis it was over 90%; in data set [2], 70%; in the data set with Echinochloa crus-galli, 40%.
On to `CCOC(=O)c1cnn(CC)c1S(=O)(=O)NC(=O)Nc1nc(OC)cc(OC)n1`, for which, in data set [1], the inhibition at 432 h stood at 5%. Besides, the inhibition of growth at 5 g/ha in the data set with Rotala indica was over 90%; with Pontederia vaginalis, over 90%; in data set [2] it was 70%; in the data set with Echinochloa crus-galli it was 5%.
`COc1cc(OC)nc(NC(=O)NS(=O)(=O)c2c(C(=O)N(C)C)cnn2C)n1`: the inhibition at 432 h in data set [1] was under 5%. In addition, the inhibition of growth at 5 g/ha (in the data set with Rotala indica; with Pontederia vaginalis; in data set [2]; with Echinochloa crus-galli) was under 5% throughout.
`COc1cc(OC)nc(NC(=O)NS(=O)(=O)c2c([N+](=O)[O-])cnn2C)n1`: the inhibition at 432 h in data set [1] is under 5%. Also, the inhibition of growth at 5 g/ha (with Rotala indica; in the data set on Pontederia vaginalis; in data set [2]; in the data set with Echinochloa crus-galli) was under 5% each time.
Regarding `CCOC(=O)c1c(C(F)(F)F)nn(C)c1S(=O)(=O)NC(=O)Nc1nc(OC)cc(OC)n1`, the inhibition at 432 h in data set [1] was under 5%. Besides, the inhibition of growth at 5 g/ha in the data set with Rotala indica was 20%; with Pontederia vaginalis, under 5%; in data set [2], under 5%; in the data set with Echinochloa crus-galli, under 5%.
Turning to `CCOC(=O)c1c(C)nn(C)c1S(=O)(=O)NC(=O)Nc1nc(OC)cc(OC)n1`, the inhibition at 432 h in data set [1] was under 5%. Further, the inhibition of growth at 5 g/ha is over 90% in the data set on Rotala indica, over 90% with Pontederia vaginalis, over 90% in data set [2] and 70% in the data set on Echinochloa crus-galli.
As to `CCC(=O)c1cnn(C)c1S(=O)(=O)NC(=O)Nc1nc(OC)cc(OC)n1`, the inhibition at 432 h in data set [1] is under 5%. The inhibition of growth at 5 g/ha in the data set on Rotala indica was 40%; in the data set on Pontederia vaginalis, 40%; in data set [2], 20%; with Echinochloa crus-galli, 5%.
Turning to `COc1cc(OC)nc(NC(=O)NS(=O)(=O)c2c(S(=O)(=O)N(C)C)cnn2C)n1`, the inhibition at 432 h in data set [1] was over 90%. In addition, the inhibition of growth at 5 g/ha in the data set with Rotala indica was over 90%; in the data set on Pontederia vaginalis, 70%; in data set [2] it was over 90%; with Echinochloa crus-galli it was 40%.
As for `CCOC(=O)c1cn[nH]c1S(=O)(=O)NC(=O)Nc1nc(OC)cc(OC)n1`, in data set [1], the inhibition at 432 h is 5%. The inhibition of growth at 5 g/ha in the data set on Rotala indica is 70%; in the data set on Pontederia vaginalis, 70%; in data set [2], 70%; in the data set on Echinochloa crus-galli, 5%.
For `CCOC(=O)c1cnn(C)c1S(=O)(=O)NC(=O)Nc1nc(C)cc(OC)n1`, the inhibition at 432 h in data set [1] was under 5%. Further, the inhibition of growth at 5 g/ha in the data set on Rotala indica is over 90%; with Pontederia vaginalis, 70%; in data set [2] it was 70%; with Echinochloa crus-galli it was 5%.
Consider `CCCCn1ncc(C(=O)OCC)c1S(=O)(=O)NC(=O)Nc1nc(OC)cc(OC)n1`, for which the inhibition at 432 h in data set [1] is under 5%. In addition, the inhibition of growth at 5 g/ha (in the data set with Rotala indica; with Pontederia vaginalis; in data set [2]; in the data set on Echinochloa crus-galli) was under 5% in each case.
Regarding `COc1cc(OC)nc(NC(=O)NS(=O)(=O)c2c(Br)cnn2C)n1`, the inhibition at 432 h in data set [1] is under 5%. For the same compound, the inhibition of growth at 5 g/ha with Rotala indica is 40%; with Pontederia vaginalis it was 70%; in data set [2], 40%; in the data set on Echinochloa crus-galli it was under 5%.
Consider `COC(=O)c1cnn(C)c1S(=O)(=O)NC(=O)Nc1nc(OC)cc(OC)n1`, for which the inhibition at 432 h in data set [1] was under 5%. Also, the inhibition of growth at 5 g/ha is over 90% in the data set on Rotala indica, over 90% with Pontederia vaginalis, 70% in data set [2] and 40% with Echinochloa crus-galli.
On to `CCCOC(=O)c1cnn(C)c1S(=O)(=O)NC(=O)Nc1nc(OC)cc(OC)n1`, for which the inhibition at 432 h in data set [1] is under 5%. For the same compound, the inhibition of growth at 5 g/ha with Rotala indica was over 90%; in the data set on Pontederia vaginalis it was over 90%; in data set [2] it was 70%; in the data set on Echinochloa crus-galli, under 5%.
As for `CCOC(=O)c1cnn(-c2ccccc2)c1S(=O)(=O)NC(=O)Nc1nc(OC)cc(OC)n1`, in data set [1], the inhibition at 432 h is under 5%. In addition, the inhibition of growth at 5 g/ha in the data set with Rotala indica was 70%; in the data set on Pontederia vaginalis, 40%; in data set [2], 20%; in the data set with Echinochloa crus-galli, under 5%.
Turning to `CCOC(=O)c1cnn(C)c1S(=O)(=O)NC(=O)Nc1nc(C)cc(C)n1`, in data set [1], the inhibition at 432 h came to 5%. Besides, the inhibition of growth at 5 g/ha is 40% with Rotala indica, under 5% in the data set with Pontederia vaginalis, under 5% in data set [2] and under 5% in the data set on Echinochloa crus-galli.
Consider `COc1cc(OC)nc(NC(=O)NS(=O)(=O)c2c(C(=O)O)cnn2C)n1`, for which the inhibition at 432 h in data set [1] was under 5%. Also, the inhibition of growth at 5 g/ha (with Rotala indica; with Pontederia vaginalis; in data set [2]; in the data set on Echinochloa crus-galli) was under 5% each time.
Consider `CCCCOC(=O)c1cnn(C)c1S(=O)(=O)NC(=O)Nc1nc(OC)cc(OC)n1`, for which the inhibition at 432 h in data set [1] was under 5%. For the same compound, the inhibition of growth at 5 g/ha (in the data set on Rotala indica; in the data set on Pontederia vaginalis; in data set [2]; in the data set on Echinochloa crus-galli) was under 5% each time.
Turning to `CCOC(=O)c1c(Cl)nn(C)c1S(=O)(=O)NC(=O)Nc1nc(OC)cc(OC)n1`, in data set [1], the inhibition at 432 h was under 5%. Also, the inhibition of growth at 5 g/ha in the data set with Rotala indica is over 90%; in the data set on Pontederia vaginalis it was over 90%; in data set [2] it was 70%; with Echinochloa crus-galli, 20%.
Take `CCOC(=O)c1nn(C)c(S(=O)(=O)NC(=O)Nc2nc(OC)cc(OC)n2)c1C(=O)OCC`: the inhibition at 432 h in data set [1] is under 5%. Further, the inhibition of growth at 5 g/ha (in the data set with Rotala indica; in the data set with Pontederia vaginalis; in data set [2]; with Echinochloa crus-galli) was under 5% in each case.
Take `CCOC(=O)c1cnn(C)c1S(=O)(=O)NC(=O)Nc1nc(OC)nc(OC)n1`: the inhibition at 432 h in data set [1] came to 5%. Moreover, the inhibition of growth at 5 g/ha (in the data set with Rotala indica; in the data set on Pontederia vaginalis; in data set [2]; with Echinochloa crus-galli) was under 5% throughout.
Consider `COc1cc(OC)nc(NC(=O)NS(=O)(=O)c2c(C)cnn2C)n1`, for which the inhibition at 432 h in data set [1] is under 5%. The inhibition of growth at 5 g/ha worked out at 70% in the data set on Rotala indica, 40% with Pontederia vaginalis, 20% in data set [2] and 20% in the data set on Echinochloa crus-galli.
As to `CCOC(=O)c1c(CC)nn(C)c1S(=O)(=O)NC(=O)Nc1nc(OC)cc(OC)n1`, in data set [1], the inhibition at 432 h was under 5%. The inhibition of growth at 5 g/ha is over 90% in the data set with Rotala indica, 70% in the data set on Pontederia vaginalis, 40% in data set [2] and 20% in the data set with Echinochloa crus-galli.
